Measurements as given in ChEMBL document CHEMBL3351767, “The discovery of Polo-like kinase 4 inhibitors: design and optimization of spiro[cyclopropane-1,3'[3H]indol]-2'(1'H).ones as orally bioavailable antitumor agents” (J Med Chem, 2015).
≈ marks a conversion by molar mass, not a printed value.

Tests used:
[1] = Cytotoxicity against human SKBR3 cells after 5 days by SRB assay; assay type: functional; conditions: SK-BR-3, 120 h
[2] = test system: MCF7; assay: Cytotoxicity against human MCF7 cells after 5 days by SRB assay; assay type: functional; conditions: MCF7, 120 h
[3] = test system: MDA-MB-468; assay: Cytotoxicity against human MDA-MB-468 cells after 5 days by SRB assay; assay type: functional; conditions: MDA-MB-468, 120 h
[4] = molecular target: Cytochrome P450 2C9 (Homo sapiens, UniProt P11712); assay: Inhibition of CYP2C9 (unknown origin) using MFC substrate after 45 mins by fluorescence assay; assay type: ADME
Chain of Cytochrome P450 2C9 (P11712 whole entry): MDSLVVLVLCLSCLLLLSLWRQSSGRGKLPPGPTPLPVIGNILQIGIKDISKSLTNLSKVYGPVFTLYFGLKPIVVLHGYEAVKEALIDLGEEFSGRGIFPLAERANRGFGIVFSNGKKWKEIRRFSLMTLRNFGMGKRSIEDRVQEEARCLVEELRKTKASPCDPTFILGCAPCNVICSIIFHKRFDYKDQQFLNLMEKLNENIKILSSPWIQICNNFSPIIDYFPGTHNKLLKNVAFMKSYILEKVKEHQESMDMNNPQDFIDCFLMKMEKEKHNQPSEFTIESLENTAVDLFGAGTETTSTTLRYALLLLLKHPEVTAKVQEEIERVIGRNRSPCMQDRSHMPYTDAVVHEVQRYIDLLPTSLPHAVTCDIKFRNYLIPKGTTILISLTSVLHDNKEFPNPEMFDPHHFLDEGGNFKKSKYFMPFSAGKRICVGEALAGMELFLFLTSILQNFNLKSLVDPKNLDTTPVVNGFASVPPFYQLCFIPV

[5] = molecular target: Vascular endothelial growth factor receptor 2 (Homo sapiens, UniProt P35968); assay: Inhibition of KDR (unknown origin) by FRET-based homogeneous assay
Chain of Vascular endothelial growth factor receptor 2 (P35968 whole entry): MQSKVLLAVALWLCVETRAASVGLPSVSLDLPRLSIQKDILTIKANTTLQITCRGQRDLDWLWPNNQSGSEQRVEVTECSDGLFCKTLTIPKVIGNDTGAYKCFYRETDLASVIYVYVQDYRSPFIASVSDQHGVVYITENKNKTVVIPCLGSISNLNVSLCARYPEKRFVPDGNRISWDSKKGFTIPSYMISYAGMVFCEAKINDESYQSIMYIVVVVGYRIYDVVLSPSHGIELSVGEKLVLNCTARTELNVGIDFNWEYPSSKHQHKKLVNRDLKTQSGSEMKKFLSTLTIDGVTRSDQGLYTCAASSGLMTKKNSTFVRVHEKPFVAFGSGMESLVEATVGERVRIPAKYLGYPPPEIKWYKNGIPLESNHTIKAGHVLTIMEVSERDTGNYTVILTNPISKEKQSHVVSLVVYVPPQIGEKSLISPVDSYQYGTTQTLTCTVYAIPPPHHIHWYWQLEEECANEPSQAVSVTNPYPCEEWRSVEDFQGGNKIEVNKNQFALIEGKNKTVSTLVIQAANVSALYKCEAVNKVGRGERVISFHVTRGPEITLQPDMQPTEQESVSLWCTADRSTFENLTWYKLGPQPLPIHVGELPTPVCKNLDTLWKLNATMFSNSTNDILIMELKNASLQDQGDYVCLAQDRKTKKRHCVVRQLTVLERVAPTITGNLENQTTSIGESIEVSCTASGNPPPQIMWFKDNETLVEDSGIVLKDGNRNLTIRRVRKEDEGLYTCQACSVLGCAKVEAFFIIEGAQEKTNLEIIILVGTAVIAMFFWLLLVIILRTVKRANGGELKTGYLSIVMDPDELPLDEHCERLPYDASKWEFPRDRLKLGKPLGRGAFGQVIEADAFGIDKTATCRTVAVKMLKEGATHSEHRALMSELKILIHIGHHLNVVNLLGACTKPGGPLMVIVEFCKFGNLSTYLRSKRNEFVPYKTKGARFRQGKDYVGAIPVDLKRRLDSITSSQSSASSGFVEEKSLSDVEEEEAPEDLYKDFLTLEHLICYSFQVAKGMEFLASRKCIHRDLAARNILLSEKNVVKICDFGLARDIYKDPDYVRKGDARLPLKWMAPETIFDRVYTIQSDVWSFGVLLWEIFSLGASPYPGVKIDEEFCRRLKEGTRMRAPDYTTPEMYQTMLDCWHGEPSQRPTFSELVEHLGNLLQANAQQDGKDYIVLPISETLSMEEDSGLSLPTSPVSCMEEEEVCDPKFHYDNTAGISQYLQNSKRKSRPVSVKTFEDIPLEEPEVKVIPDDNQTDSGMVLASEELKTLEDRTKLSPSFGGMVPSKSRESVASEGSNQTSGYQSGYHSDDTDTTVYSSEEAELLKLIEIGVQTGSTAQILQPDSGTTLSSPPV

[6] = molecular target: T1, Cytochrome P450 1A2 (Homo sapiens, UniProt P05177); assay: (§1) Inhibition of CYP1A2 (unknown origin) using CEC substrate after 15 mins by fluorescence assay; assay type: ADME
T1 sequence (P05177 whole entry): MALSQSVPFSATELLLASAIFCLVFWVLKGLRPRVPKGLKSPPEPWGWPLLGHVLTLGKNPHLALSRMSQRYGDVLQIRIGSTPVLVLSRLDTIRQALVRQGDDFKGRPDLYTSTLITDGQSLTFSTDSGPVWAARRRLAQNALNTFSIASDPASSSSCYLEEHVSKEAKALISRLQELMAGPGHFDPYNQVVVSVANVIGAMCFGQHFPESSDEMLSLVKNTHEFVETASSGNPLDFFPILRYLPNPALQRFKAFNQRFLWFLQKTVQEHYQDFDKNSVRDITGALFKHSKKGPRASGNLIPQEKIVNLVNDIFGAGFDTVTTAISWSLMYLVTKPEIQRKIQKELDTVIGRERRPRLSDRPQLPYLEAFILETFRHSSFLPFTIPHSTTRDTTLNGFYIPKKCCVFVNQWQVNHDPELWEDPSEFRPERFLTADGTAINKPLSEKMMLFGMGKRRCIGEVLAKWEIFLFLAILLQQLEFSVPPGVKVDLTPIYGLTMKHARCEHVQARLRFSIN

[7] = Cmax in SCID mouse at 50 mg/kg, ip after 8 hrs by LCMS/MS method; assay type: ADME, organism-based; design: dose 50 mg/kg, route intraperitoneal; conditions: in vivo
[8] = Aqueous solubility at pH 7.4; assay type: physicochemical; conditions: buffer
[9] = molecular target: Cytochrome P450 3A4 (Homo sapiens, UniProt P08684); assay: Inhibition of CYP3A4 (unknown origin) using BFC substrate after 30 mins by fluorescence assay; assay type: ADME
Chain of Cytochrome P450 3A4 (P08684 whole entry): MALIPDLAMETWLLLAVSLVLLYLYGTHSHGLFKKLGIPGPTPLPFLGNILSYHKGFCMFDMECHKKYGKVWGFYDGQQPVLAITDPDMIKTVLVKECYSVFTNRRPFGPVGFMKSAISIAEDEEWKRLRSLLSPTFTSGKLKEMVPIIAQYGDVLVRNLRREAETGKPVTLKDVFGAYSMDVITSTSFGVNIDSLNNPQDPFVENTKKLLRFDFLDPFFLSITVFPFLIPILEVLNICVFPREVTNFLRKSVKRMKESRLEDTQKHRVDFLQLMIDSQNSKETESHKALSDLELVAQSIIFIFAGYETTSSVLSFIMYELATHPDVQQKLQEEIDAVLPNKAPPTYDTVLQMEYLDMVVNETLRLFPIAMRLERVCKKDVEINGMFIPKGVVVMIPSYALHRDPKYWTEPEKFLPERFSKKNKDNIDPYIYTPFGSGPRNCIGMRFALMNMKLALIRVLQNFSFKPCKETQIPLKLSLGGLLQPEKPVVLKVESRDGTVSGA

[10] = molecular target: Cytochrome P450 2C19 (Homo sapiens, UniProt P33261); assay: Inhibition of CYP2C19 (unknown origin) using MFC substrate after 30 mins by fluorescence assay; assay type: ADME
Chain of Cytochrome P450 2C19 (P33261 whole entry): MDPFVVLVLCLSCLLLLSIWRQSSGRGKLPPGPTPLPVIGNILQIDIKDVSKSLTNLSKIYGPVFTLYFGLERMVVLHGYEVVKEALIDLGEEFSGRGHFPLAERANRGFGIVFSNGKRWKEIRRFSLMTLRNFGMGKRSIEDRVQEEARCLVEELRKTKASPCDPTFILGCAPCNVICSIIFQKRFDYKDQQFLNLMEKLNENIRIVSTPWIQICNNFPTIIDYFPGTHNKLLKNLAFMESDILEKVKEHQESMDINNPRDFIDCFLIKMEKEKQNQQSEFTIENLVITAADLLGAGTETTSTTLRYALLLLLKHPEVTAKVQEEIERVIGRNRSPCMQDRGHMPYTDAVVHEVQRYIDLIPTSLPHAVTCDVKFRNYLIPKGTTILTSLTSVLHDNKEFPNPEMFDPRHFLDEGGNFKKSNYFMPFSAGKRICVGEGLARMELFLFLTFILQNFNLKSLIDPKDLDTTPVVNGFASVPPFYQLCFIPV

[11] = Half life in mouse liver microsomes at 1 uM in presence of NADPH by LC-MS method; assay type: ADME
[12] = molecular target: Cytochrome P450 2D6 (Homo sapiens, UniProt P10635); assay: Inhibition of CYP2D6 (unknown origin) using AMMC substrate after 45 mins by fluorescence assay; assay type: ADME
Chain of Cytochrome P450 2D6 (P10635 whole entry): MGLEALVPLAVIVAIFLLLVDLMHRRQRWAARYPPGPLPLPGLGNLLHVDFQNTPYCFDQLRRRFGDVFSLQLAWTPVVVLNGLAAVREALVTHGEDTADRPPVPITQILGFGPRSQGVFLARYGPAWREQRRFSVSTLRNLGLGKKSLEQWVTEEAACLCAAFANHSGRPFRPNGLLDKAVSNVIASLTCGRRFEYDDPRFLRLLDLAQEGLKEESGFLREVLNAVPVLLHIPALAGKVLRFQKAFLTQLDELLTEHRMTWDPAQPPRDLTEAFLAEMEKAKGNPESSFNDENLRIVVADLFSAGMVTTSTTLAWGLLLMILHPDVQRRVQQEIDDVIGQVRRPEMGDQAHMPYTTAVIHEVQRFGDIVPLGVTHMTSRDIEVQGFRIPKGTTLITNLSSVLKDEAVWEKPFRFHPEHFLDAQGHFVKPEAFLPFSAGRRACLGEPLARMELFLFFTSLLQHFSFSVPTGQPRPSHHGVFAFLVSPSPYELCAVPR

[13] = Half life in human liver microsomes at 1 uM in presence of NADPH by LC-MS method; assay type: ADME
[14] = test system: MDA-MB-231; assay: Cytotoxicity against human MDA-MB-231 cells after 5 days by SRB assay; assay type: functional; conditions: MDA-MB-231, 120 h
[15] = AUC in SCID mouse at 50 mg/kg, ip after 8 hrs by LCMS/MS method; assay type: ADME, organism-based; design: time < 8 hr, dose 50 mg/kg, route intraperitoneal; conditions: plasma
[16] = molecular target: T2, Serine/threonine-protein kinase PLK4 (Homo sapiens, UniProt O00444); assay: Inhibition of human N-terminal GST-tagged PLK4 (1 to 391 residues) expressed in Escherichia coli incubated for 30 mins by ELISA method
T2 sequence (O00444 whole entry): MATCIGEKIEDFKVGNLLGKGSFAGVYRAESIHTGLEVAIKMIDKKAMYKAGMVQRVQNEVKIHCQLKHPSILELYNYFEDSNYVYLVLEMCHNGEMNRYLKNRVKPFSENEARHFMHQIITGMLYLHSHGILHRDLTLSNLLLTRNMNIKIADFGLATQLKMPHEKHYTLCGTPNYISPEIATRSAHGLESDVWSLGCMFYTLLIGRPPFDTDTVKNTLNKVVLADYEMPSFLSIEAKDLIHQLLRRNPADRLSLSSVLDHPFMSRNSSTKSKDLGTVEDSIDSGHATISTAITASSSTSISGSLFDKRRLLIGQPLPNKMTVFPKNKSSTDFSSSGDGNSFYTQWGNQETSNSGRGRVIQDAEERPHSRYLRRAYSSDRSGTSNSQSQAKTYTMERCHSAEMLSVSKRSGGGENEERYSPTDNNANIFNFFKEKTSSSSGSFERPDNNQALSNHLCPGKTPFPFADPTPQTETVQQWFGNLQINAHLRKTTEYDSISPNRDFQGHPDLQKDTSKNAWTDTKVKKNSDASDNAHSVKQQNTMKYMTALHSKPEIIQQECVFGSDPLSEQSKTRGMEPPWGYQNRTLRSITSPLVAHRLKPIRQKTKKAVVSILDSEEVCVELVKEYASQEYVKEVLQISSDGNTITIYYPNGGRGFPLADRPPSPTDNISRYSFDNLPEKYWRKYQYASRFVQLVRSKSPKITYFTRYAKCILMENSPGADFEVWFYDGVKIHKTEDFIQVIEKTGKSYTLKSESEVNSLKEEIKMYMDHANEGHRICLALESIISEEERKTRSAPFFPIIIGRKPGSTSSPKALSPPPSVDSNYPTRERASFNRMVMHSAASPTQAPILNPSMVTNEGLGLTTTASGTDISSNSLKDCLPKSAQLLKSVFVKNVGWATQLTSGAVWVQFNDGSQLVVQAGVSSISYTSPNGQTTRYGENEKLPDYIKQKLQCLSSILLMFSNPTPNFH

[17] = molecular target: T3, Receptor-type tyrosine-protein kinase FLT3 (Homo sapiens, UniProt P36888); assay: Inhibition of FLT3 (unknown origin) by FRET-based homogeneous assay
T3 sequence (P36888 whole entry): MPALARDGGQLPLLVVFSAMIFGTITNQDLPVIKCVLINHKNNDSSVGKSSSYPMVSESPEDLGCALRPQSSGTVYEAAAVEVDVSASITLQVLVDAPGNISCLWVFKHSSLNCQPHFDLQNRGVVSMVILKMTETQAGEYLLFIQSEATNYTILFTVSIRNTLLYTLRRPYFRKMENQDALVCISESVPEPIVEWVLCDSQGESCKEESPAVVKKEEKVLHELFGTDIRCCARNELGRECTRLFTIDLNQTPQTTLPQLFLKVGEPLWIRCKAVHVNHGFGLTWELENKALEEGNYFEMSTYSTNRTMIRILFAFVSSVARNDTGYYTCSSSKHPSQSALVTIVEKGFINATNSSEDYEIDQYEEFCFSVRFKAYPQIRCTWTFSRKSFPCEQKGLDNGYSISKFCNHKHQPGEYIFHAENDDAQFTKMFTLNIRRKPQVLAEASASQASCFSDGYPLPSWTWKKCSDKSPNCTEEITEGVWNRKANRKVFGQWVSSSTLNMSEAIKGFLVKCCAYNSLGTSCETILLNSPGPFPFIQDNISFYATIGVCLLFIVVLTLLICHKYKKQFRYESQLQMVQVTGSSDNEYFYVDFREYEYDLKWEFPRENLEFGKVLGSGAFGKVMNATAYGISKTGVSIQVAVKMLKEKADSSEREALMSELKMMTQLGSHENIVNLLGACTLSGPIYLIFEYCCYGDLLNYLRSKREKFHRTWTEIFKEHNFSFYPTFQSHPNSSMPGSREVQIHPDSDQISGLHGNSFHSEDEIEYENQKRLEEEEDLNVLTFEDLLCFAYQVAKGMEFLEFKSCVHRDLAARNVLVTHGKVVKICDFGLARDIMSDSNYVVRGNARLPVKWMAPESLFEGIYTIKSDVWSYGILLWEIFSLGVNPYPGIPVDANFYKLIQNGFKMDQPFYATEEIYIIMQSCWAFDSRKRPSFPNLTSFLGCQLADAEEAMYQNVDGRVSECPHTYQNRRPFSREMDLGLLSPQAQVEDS

[18] = molecular target: T4, CYP1A2 (Homo sapiens, UniProt P05177); assay: as §1; assay type: ADME; conditions: probe CEC
T4 sequence (P05177 whole entry): T1 sequence (P05177 whole entry)

[19] = Protein binding in plasma (unknown origin); assay type: ADME, cell-free; conditions: read-out: PPB (converted)
[20] = AUC in SCID mouse at 25 mg/kg, po by LCMS/MS method; assay type: ADME, organism-based; design: dose 25 mg/kg, route oral; conditions: plasma
[21] = Cmax in SCID mouse at 25 mg/kg, po by LCMS/MS method; assay type: ADME, organism-based; design: dose 25 mg/kg, route oral; conditions: in vivo
[22] = molecular target: Serine/threonine-protein kinase PLK1 (Homo sapiens, UniProt P53350); assay: Inhibition of PLK1 (unknown origin) by FRET-based homogeneous assay
Chain of Serine/threonine-protein kinase PLK1 (P53350 whole entry): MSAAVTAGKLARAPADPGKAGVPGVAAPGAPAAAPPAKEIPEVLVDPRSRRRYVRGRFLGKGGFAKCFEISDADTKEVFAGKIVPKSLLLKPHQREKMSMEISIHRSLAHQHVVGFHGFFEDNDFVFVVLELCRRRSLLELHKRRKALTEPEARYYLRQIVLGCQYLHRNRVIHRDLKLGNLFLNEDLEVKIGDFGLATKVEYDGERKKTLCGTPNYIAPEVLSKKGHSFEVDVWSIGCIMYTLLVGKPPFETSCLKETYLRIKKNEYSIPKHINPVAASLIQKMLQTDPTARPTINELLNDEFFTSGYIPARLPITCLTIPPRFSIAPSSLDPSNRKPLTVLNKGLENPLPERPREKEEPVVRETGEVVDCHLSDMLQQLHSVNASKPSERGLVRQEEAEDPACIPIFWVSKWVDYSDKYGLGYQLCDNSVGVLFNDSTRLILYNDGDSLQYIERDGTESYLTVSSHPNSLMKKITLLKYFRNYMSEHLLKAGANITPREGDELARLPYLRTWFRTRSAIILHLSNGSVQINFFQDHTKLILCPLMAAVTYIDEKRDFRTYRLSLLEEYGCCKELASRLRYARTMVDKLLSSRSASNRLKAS

[23] = molecular target: Serine/threonine-protein kinase PLK3 (Homo sapiens, UniProt Q9H4B4); assay: Inhibition of PLK3 (unknown origin) by FRET-based homogeneous assay
Chain of Serine/threonine-protein kinase PLK3 (Q9H4B4 whole entry): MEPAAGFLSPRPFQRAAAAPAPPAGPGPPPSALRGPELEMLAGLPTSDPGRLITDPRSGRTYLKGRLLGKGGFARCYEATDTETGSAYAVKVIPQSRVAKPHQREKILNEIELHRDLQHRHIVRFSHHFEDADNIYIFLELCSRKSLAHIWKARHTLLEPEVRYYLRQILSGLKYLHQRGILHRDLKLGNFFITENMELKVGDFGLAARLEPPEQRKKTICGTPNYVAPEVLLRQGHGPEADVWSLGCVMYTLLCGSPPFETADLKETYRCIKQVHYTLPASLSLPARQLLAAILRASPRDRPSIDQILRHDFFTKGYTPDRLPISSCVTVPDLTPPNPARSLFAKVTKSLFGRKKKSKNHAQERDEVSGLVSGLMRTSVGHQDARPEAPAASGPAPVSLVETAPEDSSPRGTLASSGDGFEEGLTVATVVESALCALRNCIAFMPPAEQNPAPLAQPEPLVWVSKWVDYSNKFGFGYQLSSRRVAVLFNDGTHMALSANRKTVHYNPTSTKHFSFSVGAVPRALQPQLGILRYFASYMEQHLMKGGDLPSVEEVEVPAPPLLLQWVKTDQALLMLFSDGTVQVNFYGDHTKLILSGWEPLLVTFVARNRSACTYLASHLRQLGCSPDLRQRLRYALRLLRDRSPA

[24] = molecular target: Serine/threonine-protein kinase PLK2 (Homo sapiens, UniProt Q9NYY3); assay: Inhibition of PLK2 (unknown origin) by FRET-based homogeneous assay

SMILES | GI50 [1] | GI50 [2] | GI50 [3] | IC50 [4] | IC50 [5] | IC50 [6] | Cmax [7] | solubility [8] | IC50 [9] | IC50 [10] | half-life at 1 µM [11] | IC50 [12] | half-life at 1 µM [13] | GI50 [14] | AUC at 8 h [15] | IC50 [17] | fraction unbound [19] | AUC [20] | Cmax [21] | other results
COc1ccc2c(c1)[C@]1(C[C@H]1c1ccc3c(/C=C/c4ccc(N5CCN(C)CC5)nc4)n[nH]c3c1)C(=O)N2 (relative stereo) | 13400 nM | 10 nM | 6 nM | 1600 nM | 2000 nM | > 10000 nM | 200 ng/mL | 0.19 µg/mL (≈ 0.375 µM) | 2100 nM | 1600 nM | 9 min | > 10000 nM | 16 min | 10 nM | 450 ng·h/mL |  |  |  |  | 
CN(C)Cc1ccc(/C=C/c2n[nH]c3cc(/C=C4/C(=O)Nc5ccccc54)ccc23)cc1 |  | 7 nM | 12 nM | 1400 nM |  |  | 870 ng/mL | < 0.1 µg/mL | 940 nM |  | 7 min |  | 40 min |  | 830 ng·h/mL | 35 nM | 0.016 |  |  | IC50 [16]: 4 nM; IC50 at 15 min [18]: > 10000 nM
O=C1Nc2ccccc2/C1=C/c1ccc2cn[nH]c2c1 |  | 5300 nM | 4600 nM | 500 nM | 2500 nM | 50 nM | 11 ng/mL | 0.7 µg/mL (≈ 2.68 µM) | 10000 nM | 210 nM | 5 min | > 1000 nM | 54 min |  | 61 ng·h/mL | 140 nM | < 0.001 |  |  | 
CN1CCN(Cc2ccc(/C=C/c3n[nH]c4cc([C@@H]5C[C@@]56C(=O)Nc5ccccc56)ccc34)cc2)CC1 (relative stereo) | 6000 nM | 10 nM | 10 nM | > 1000 nM | 120 nM | > 1000 nM |  |  | > 10000 nM | > 1000 nM |  | > 10000 nM |  | 2500 nM |  | 120 nM |  | 580 ng·h/mL | 190 ng/mL | 
O=C1Nc2ccccc2[C@]12C[C@H]2c1ccc2c(/C=C/c3ccncc3)n[nH]c2c1 (relative stereo) | 20300 nM | 600 nM | 360 nM | 30 nM | 1300 nM | 1400 nM | 1700 ng/mL | 0.4 µg/mL (≈ 1.06 µM) | > 1000 nM | 260 nM | 18 min | 700 nM | > 60 min | 680 nM | 2900 ng·h/mL | 33 nM | 0.045 | 650 ng·h/mL | 470 ng/mL | IC50 [22]: > 100000 nM; IC50 [23]: > 100000 nM; IC50 [24]: > 100000 nM
O=C1Nc2ccccc2[C@]12C[C@H]2c1ccc2cn[nH]c2c1 (relative stereo) |  | 16000 nM | 14000 nM | > 10000 nM | > 10000 nM | > 10000 nM | 1200 ng/mL | 8 µg/mL (≈ 29.1 µM) | > 10000 nM | 10000 nM | 49 min | > 10000 nM | > 60 min |  | 1620 ng·h/mL | 3200 nM | 0.17 |  |  | 
